{
  "source": "patent US12208089B2",
  "about": "“Adjusting expression level of a gene encoding a Sirtuin protein by treating a human subject with a nitroxide” (priority 2021, dated 2025)",
  "test_system": "SIRT2",
  "assay": "Effects of Tempol on gene expression in cardiac tissue of mice, chip-based microarray",
  "type": "in vivo",
  "settings": "5 mg/g of food from 14 to 31 months after birth",
  "experimental": "To assess the effects of Tempol on gene expression, Tempol was administered to experimental mice at a dose of 5 mg/g of food from 14 months to 31 months after birth. Mice receiving the same food without the addition of Tempol were used as a negative control. At the age of 31 months, the experimental animals were sacrificed and the hearts were surgically removed. The expression of a broad spectrum of genes in the cardiac tissue was assessed using chip-based microarray technology. Such chips are well known in the art and are widely used to assess gene expression.",
  "data": [
    {"smiles": "CC1(C)CC(O)CC(C)(C)N1[O]", "note": "[Tempol, 4-hydroxy-2,2,6,6-tetramethylpiperidine-1-oxyl]", "values": [
      {"measurement": "Fold change (SIRT2 expression in cardiac tissue after Tempol administration)", "setting": "hearts at 31 months, vs. same food without Tempol, P-value 0.00", "value": 1.16},
      {"measurement": "SIRT2 expression in the cardiac tissue", "setting": "microarray, vs. negative control", "value": "statistically significant increase in expression"}
    ]}
  ]
}
